# ChEMBL document CHEMBL3994630, “Antiparasitic lethality of sulfonamidebenzamides in kinetoplastids” (Bioorg Med Chem Lett, 2017)
# Active and inactive are the calls of the source. No cut-off for these calls is given here.
# Experiments:
# Leishmania amazonensis = experiment: Anti-parasitic activity against Leishmania amazonensis promastigotes after 44 hrs by CellTiter-Blue assay; type: functional
# [1] = Selectivity index, ratio of EC50 for cytotoxicity against human IMR90 cells to EC50 for antitrypanosomal activity against Trypanosoma brucei 90-13 bloodstream forms; type: toxicity, cell-based; conditions: read-out: Ratio EC50
# IMR-90 = experiment: Cytotoxicity against human IMR90 cells after 44 to 46 hrs by CellTiter-Blue assay; type: cell-based
# Trypanosoma brucei [2] = experiment: Antitrypanosomal activity against Trypanosoma brucei 90-13 bloodstream forms after 72 hrs by CellTiter-Blue assay; type: functional; conditions: 90-13, 72 h
# [3] = Selectivity index, ratio of EC50 for cytotoxicity against human IMR90 cells to EC50 for anti-parasitic activity against Leishmania amazonensis promastigotes; type: toxicity, cell-based; conditions: read-out: Ratio EC50
# Trypanosoma brucei [4] = experiment: Induction of apoptosis in Trypanosoma brucei 90-13 bloodstream forms at EC50 after 6 hrs by Annexin-V-FITC/propidium iodide staining based flow cytometry (reference value: 47.3%); type: functional
# Trypanosoma brucei [5] = experiment: Induction of apoptosis in Trypanosoma brucei 90-13 bloodstream forms assessed as dead cells at EC50 after 6 to 24 hrs by Annexin-V-FITC/propidium iodide staining based flow cytometry (reference value: 49.7%); type: functional
# Trypanosoma brucei [6] = experiment: Induction of apoptosis in Trypanosoma brucei 90-13 bloodstream forms after 6 to 24 hrs by Annexin-V-FITC/propidium iodide staining based flow cytometry; type: functional
# Trypanosoma brucei [7] = experiment: Induction of apoptosis in Trypanosoma brucei 29-13 procyclic forms after 6 to 24 hrs by Annexin-V-FITC/propidium iodide staining based flow cytometry (reference value: 658 RFU); type: functional
SMILES,EC50 (Trypanosoma brucei [2]) [nM],EC50 (Leishmania amazonensis) [nM],selectivity ratio [1],EC50 (IMR-90) [nM],selectivity ratio [3],Activity (Trypanosoma brucei [4]) [%],Activity (Trypanosoma brucei [5]) [%],Activity (Trypanosoma brucei [6]),Activity (Trypanosoma brucei [7]) [RFU]
CC1(C)CCN(S(=O)(=O)c2ccc(NC(=O)c3cccc([N+](=O)[O-])c3)cc2)CC1,6600,13300,> 4,> 25000,> 2,–,–,–,–
CC1(C)CCN(S(=O)(=O)c2ccc(NC(=O)c3ccc(C(F)(F)F)o3)cc2)CC1,7550,10700,> 3,> 25000,> 2,–,–,–,–
CC1(C)CCN(S(=O)(=O)c2cccc(NC(=O)c3ccco3)c2)CC1,5110,1200,> 5,> 25000,> 21,–,–,–,–
O=C(Nc1ccc(S(=O)(=O)N2CCOCC2)cc1)c1ccc([N+](=O)[O-])o1,460,3000,> 54,> 25000,> 8,–,–,–,–
O=C(Nc1cccc(S(=O)(=O)N2CCOCC2)c1)c1ccc([N+](=O)[O-])o1,1470,900,> 17,> 25000,> 28,–,–,–,–
O=C(Nc1ccc(S(=O)(=O)C2CCCCC2)cc1)c1ccc([N+](=O)[O-])o1,490,1600,> 51,> 25000,> 16,–,–,–,–
Cc1ccc(C(=O)Nc2ccc(S(=O)(=O)N3CCOCC3)cc2)o1,> 10000,> 25000,–,> 25000,–,–,–,–,–
CC1CS(=O)(=O)CCN1/N=C/c1ccc([N+](=O)[O-])o1 (configuration not stated) [NIFURTIMOX],7500,800,–,> 25000,–,–,–,–,–
CC(C)(C)C1CCN(S(=O)(=O)c2ccc(NC(=O)c3ccc([N+](=O)[O-])o3)cc2)CC1,30,1400,> 833,> 25000,> 18,82,48.2,–,–
O=C(Nc1ccc(S(=O)(=O)N2CCOCC2)cc1)c1ccccc1,> 10000,> 25000,–,> 25000,–,–,–,–,–
O=C(Nc1ccc(S(=O)(=O)N2CCOCC2)cc1)c1ccc([N+](=O)[O-])cc1,> 10000,> 25000,–,> 25000,–,–,–,–,–
O=C(Nc1ccc(S(=O)(=O)C2=CCOC=C2)cc1)c1ccc([N+](=O)[O-])o1,530,300,> 47,> 25000,> 83,–,–,–,–
O=C(Nc1ccc(S(=O)(=O)N2CCC(F)CC2)cc1)c1ccc([N+](=O)[O-])o1,420,7400,> 60,> 25000,> 3,–,–,–,–
CC1(C)CCN(S(=O)(=O)c2cccc(NC(=O)c3cccc([N+](=O)[O-])c3)c2)CC1,10400,3000,> 2,> 25000,> 8,–,–,–,–
O=C(Nc1ccc(S(=O)(=O)N2CCOCC2)cc1)c1ccco1,> 10000,> 25000,–,> 25000,–,–,–,–,–
O=C(Nc1ccc(S(=O)(=O)N2CCOCC2)cc1)c1cccs1,> 10000,> 25000,–,> 25000,–,–,–,–,–
N=C1CCN(S(=O)(=O)c2ccc(NC(=O)c3ccc([N+](=O)[O-])o3)cc2)CC1,730,10500,> 34,> 25000,> 2,–,–,–,–

# More lines, main results first:
EC50 (Trypanosoma brucei [2]) [nM],SMILES,EC50 (Leishmania amazonensis) [nM],selectivity ratio [1],EC50 (IMR-90) [nM],selectivity ratio [3],Activity (Trypanosoma brucei [4]) [%],Activity (Trypanosoma brucei [5]) [%],Activity (Trypanosoma brucei [6]),Activity (Trypanosoma brucei [7]) [RFU]
60,O=C(Nc1ccc(S(=O)(=O)N2CCOCC2)cc1)c1ccc([N+](=O)[O-])s1,1300,> 417,> 25000,> 19,–,–,–,–
10,CC1(C)CCN(S(=O)(=O)c2ccc(NC(=O)c3ccc([N+](=O)[O-])s3)cc2)CC1,100,> 2500,> 25000,> 250,–,–,–,–
320,CC1(C)CCN(S(=O)(=O)c2cccc(NC(=O)c3ccc([N+](=O)[O-])o3)c2)CC1,100,> 78,> 25000,> 250,–,–,–,–
30,O=C(Nc1ccc(S(=O)(=O)N2CCC3(CCCCC3)CC2)cc1)c1ccc([N+](=O)[O-])o1,1500,> 833,> 25000,> 17,–,–,–,–
90,CC1(C)CCN(S(=O)(=O)c2ccc(NC(=O)c3ccc([N+](=O)[O-])o3)cc2)CC1,280,> 278,> 25000,> 89,–,–,–,–
80,O=C(Nc1ccc(S(=O)(=O)N2CCC(Cl)CC2)cc1)c1ccc([N+](=O)[O-])o1,7900,> 313,> 25000,> 3,–,–,–,–
20,O=C(Nc1ccc(S(=O)(=O)N2CCC3(CCCCC3)CC2)cc1)c1ccc([N+](=O)[O-])s1,100,> 1250,> 25000,> 250,–,–,–,–
120,CC1CCN(S(=O)(=O)c2ccc(NC(=O)c3ccc([N+](=O)[O-])o3)cc2)CC1,7700,> 208,> 25000,> 3,–,–,–,–
310,O=C(Nc1ccc(S(=O)(=O)N2CCC(O)CC2)cc1)c1ccc([N+](=O)[O-])o1,4400,> 81,> 25000,> 6,–,–,Active,849
45,CC1(C)CCN(S(=O)(=O)c2cccc(NC(=O)c3ccc([N+](=O)[O-])s3)c2)CC1,1300,> 556,> 25000,> 19,–,–,–,–
110,O=C(Nc1ccc(S(=O)(=O)c2ccccc2)cc1)c1ccc([N+](=O)[O-])o1,4300,> 227,> 25000,> 6,–,–,–,–
220,O=C(Nc1ccc(S(=O)(=O)N2CCCCC2)cc1)c1ccc([N+](=O)[O-])o1,13700,> 114,> 25000,> 2,–,–,–,–
30,CC(C)(C)C1CCN(S(=O)(=O)c2ccc(NC(=O)c3ccc([N+](=O)[O-])s3)cc2)CC1,100,> 833,> 25000,> 250,–,–,–,–
